Assay results from US20220388980A1, “QUINOLINE INHIBITORS OF RAD52 AND METHODS OF USE” (Drexel University, priority 2019, published 2022).

molecular target: T1, RAD52 (Homo sapiens, UniProt P43351); experiment: D-loop formation assay; type: biochemical; conditions: compound at 10 μM; 32P-labeled ssDNA (oligo 90) and supercoiled pUC19 DNA, 37° C.
T1 construct: made in house
T1 sequence (P43351 1-418): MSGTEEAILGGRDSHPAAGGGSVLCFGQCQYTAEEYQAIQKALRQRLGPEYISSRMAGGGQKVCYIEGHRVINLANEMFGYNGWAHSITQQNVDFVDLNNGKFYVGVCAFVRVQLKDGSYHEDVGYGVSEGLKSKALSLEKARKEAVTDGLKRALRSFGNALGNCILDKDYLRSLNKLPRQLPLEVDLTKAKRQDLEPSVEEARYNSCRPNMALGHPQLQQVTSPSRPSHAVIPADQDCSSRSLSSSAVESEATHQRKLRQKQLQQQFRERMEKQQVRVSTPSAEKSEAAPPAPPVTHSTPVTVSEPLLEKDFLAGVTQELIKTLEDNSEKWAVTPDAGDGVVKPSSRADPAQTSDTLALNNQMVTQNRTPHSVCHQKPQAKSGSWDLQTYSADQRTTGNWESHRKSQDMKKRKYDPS

Row | Compound | D-Loop (% @10 μM) [%]
1 | S=C(NCCN1CCCCCC1)Nc1ccc2nc(N3CCNCC3)ccc2c1 [compound 0021] | 40.29
2 | S=C(NCCCN1CCCCCC1)Nc1ccc2nc(N3CCNCC3)ccc2c1 [compound 0022] | 37.7
3 | CCN1CCN(c2cc(C)c3cc(NC(=S)NCCN4CCCCC4)ccc3n2)CC1 [compound 0025] | 36.08
4 | CCN1CCN(c2cc(C)c3cc(NC(=S)NCCCN4CCCCC4)ccc3n2)CC1 [compound 0026] | 11.42
5 | CCN1CCN(c2cc(C)c3cc(NC(=S)NCCN4CCCCCC4)ccc3n2)CC1 [compound 0027] | 23.26
6 | CCN1CCN(c2cc(C)c3cc(NC(=S)NCCCN4CCCCCC4)ccc3n2)CC1 [compound 0028] | 46.57
7 | CCN1CCN(c2cc(C)c3cc(NC(=S)NCCN4CCCC4)ccc3n2)CC1 [compound 0029] | 46.67
8 | CCN1CCN(c2cc(C)c3cc(NC(=S)NCCN)ccc3n2)CC1 [compound 0033] | 12.77
9 | CCN1CCN(c2cc(C)c3cc(NC(=S)NCCN(C(C)C)C(C)C)ccc3n2)CC1 [compound 0035] | 64.68
10 | CCN(CC)CCCCNC(=S)Nc1ccc2nc(N3CCN(CC)CC3)cc(C)c2c1 [compound 0036] | 64.62
11 | CCN(CC)CCNC(=O)Nc1ccc2nc(N3CCN(CC)CC3)cc(C)c2c1 [compound 0038, 1-(2-(diethylamino)ethyl)-3-(2-(4-ethylpiperazin-1-yl)-4-methylquinolin-6-yl)urea] | 77.7
12 | CCN1CCN(c2cc(C)c3cc(NC(=O)NCCCN4CCCCCC4)ccc3n2)CC1 [compound 0039, 1-(3-(azepan-1-yl)propyl)-3-(2-(4-ethylpiperazin-1-yl)-4-methylquinolin-6-yl)urea] | 93.38
13 | CCN1CCN(c2cc(C)c3cc(NC(=S)NCCN4CCCCCCC4)ccc3n2)CC1 [compound 0041] | 62.62
14 | CCN1CCN(c2cc(C)c3cc(NC(=S)NCCCN4CCC4)ccc3n2)CC1 [compound 0042] | 53.70
15 | CCN1CCN(c2cc(C)c3cc(NC(=S)NCC(C)(CN)CN)ccc3n2)CC1 [compound 0044] | 50.05
16 | CCN1CCN(c2cc(C)c3cc(NC(=S)NCCN4CCNCC4)ccc3n2)CC1 [compound 0045] | 55.68
17 | CCN1CCN(c2cc(C)c3cc(NC(=S)NCCN4CCN(C)CC4)ccc3n2)CC1 [compound 0046] | 18.73
18 | CCN1CCN(c2cc(C)c3cc(NC(=S)NCCCCN)ccc3n2)CC1 [compound 0047] | 7.92
19 | CCN(CC)CCNC(=S)Nc1ccc2nc(N3CCNCC3)cc(C)c2c1 [compound 0048] | 15.65

Row | Compound | D-Loop (% @10 μM) [%]
20 | CCN(CC)CCNC(=S)Nc1ccc2nc(N3CCN(CC4CC4)CC3)cc(C)c2c1 [compound 0049] | 44.4
21 | CCN(CC)CCNC(=S)Nc1ccc2nc(N3CCN(CC4CCCCC4)CC3)cc(C)c2c1 [compound 0050] | 62.82
22 | CCN(CC)CCNC(=S)Nc1ccc2nc(N3CCN(CC4CCCNC4)CC3)cc(C)c2c1 (centres unmarked) [compound 0051] | 10.13
23 | CCN(CC)CCNC(=S)Nc1ccc2nc(N3CCN(CC4CCNCC4)CC3)cc(C)c2c1 [compound 0052] | 4.07
24 | CCC(C)[C@H](N)C(=O)N1CCN(c2cc(C)c3cc(NC(=S)NCCN(CC)CC)ccc3n2)CC1 (some centres unmarked) [compound 0053] | 54.13
25 | CCN(CC)CCNC(=S)Nc1ccc2nc(N3CCN(C(=O)C4CCCN4)CC3)cc(C)c2c1 (centres unmarked) [compound 0054] | 53.78
26 | CCN(CC)CCNC(=S)Nc1ccc2nc(N3CCN(C(=O)C4CNCCN4)CC3)cc(C)c2c1 (centres unmarked) [compound 0055] | 27.42
27 | CCN1CCN(c2cc(C)c3cc(NC(=S)NCCCCCN)ccc3n2)CC1 [compound 0056] | 0.31
28 | CCN1CCN(c2cc(C)c3cc(NC(=S)NCCCNC)ccc3n2)CC1 [compound 0057] | 52.1
29 | CCN1CCN(c2cc(C)c3cc(NC(=S)N(C)CCCN)ccc3n2)CC1 [compound 0058] | 25.89
30 | Cc1cc(N2CCN(CC3CCCNC3)CC2)nc2ccc(NC(=S)NCCN3CCCCCC3)cc12 (centres unmarked) [compound 0059] | 1.3
31 | Cc1cc(N2CCN(CC3CCNCC3)CC2)nc2ccc(NC(=S)NCCN3CCCCCC3)cc12 [compound 0060] | 0.66
32 | Cc1cc(N2CCN(CC3CCCNC3)CC2)nc2ccc(NC(=S)NCCCN3CCCCCC3)cc12 (centres unmarked) [compound 0062] | 1.89
33 | Cc1cc(N2CCN(CC3CCNCC3)CC2)nc2ccc(NC(=S)NCCCN3CCCCCC3)cc12 [compound 0063] | 1.58
34 | Cc1cc(N2CCN(CC3CCCNC3)CC2)nc2ccc(NC(=S)NCCCN3CCCC3)cc12 (centres unmarked) [compound 0064] | 1.5
35 | Cc1cc(N2CCN(CC3CCNCC3)CC2)nc2ccc(NC(=S)NCCCN3CCCC3)cc12 [compound 0065] | 1.04
36 | CCN1CCN(c2cc(C)c3cc(NC(=S)NCCCCN(C)C)ccc3n2)CC1 [compound 0067] | 35.65
37 | CCN1CCN(c2cc(C)c3cc(NC(=S)NCCCN4CCCC4)ccc3n2)CC1 [compound 0068] | 30.62
38 | CCN1CCN(c2cc(C)c3cc(NC(=S)NCCC4CCCN4)ccc3n2)CC1 (centres unmarked) [compound 0069] | 20.7

Further lines, results first:

Row | D-Loop (% @10 μM) [%] | Compound
39 | 16.42 | CCN1CCN(c2cc(C)c3cc(NC(=S)NCCN4CCC(CN5CCCC5)C4)ccc3n2)CC1 (centres unmarked) [compound 0073]
40 | 21.2 | CCN1CCN(c2cc(C)c3cc(NC(=S)NCCCN)ccc3n2)CC1 [compound 0077]
41 | 25.15 | CCN1CCN(c2cc(C)c3cc(NC(=S)NCCCN4CCNCC4)ccc3n2)CC1 [compound 0079]
42 | 35.63 | CCN(CC)CCNC(=S)Nc1ccc2nc(N3CCN(CCN)CC3)cc(C)c2c1 [compound 0080]
43 | 68.84 | CCN(CC)CCNC(=S)Nc1ccc2nc(N3CCN(Cc4nccn4C)CC3)cc(C)c2c1 [compound 0084]
44 | 4.44 | CCN(CC)CCNC(=S)Nc1ccc2nc(N3CCN(CC(N)CO)CC3)cc(C)c2c1 (centres unmarked) [compound 0086]
45 | 0 | CCN(CC)CCNC(=S)Nc1ccc2nc(N3CCN(CCC4CCC(N)CC4)CC3)cc(C)c2c1 (centres unmarked) [compound 0087]
46 | 8.25 | CCN(CC)CCNC(=S)Nc1ccc2nc(N3CCCC3)cc(C)c2c1 [compound 0088]
47 | 3.48 | Cc1cc(N2CCCC2)nc2ccc(NC(=S)NCCN3CCCCCC3)cc12 [compound 0089]
48 | 2.93 | Cc1cc(N2CCCC2)nc2ccc(NC(=S)NCCN3CCCCC3)cc12 [compound 0090]
49 | 3.47 | Cc1cc(N2CCCC2)nc2ccc(NC(=S)NCCCN3CCCCC3)cc12 [compound 0091]
50 | 5.98 | Cc1cc(N2CCCC2)nc2ccc(NC(=S)NCCCN3CCCC3)cc12 [compound 0092]
51 | 4.86 | Cc1cc(N2CCCC2)nc2ccc(NC(=S)NCCN)cc12 [compound 0093]
52 | 4.26 | Cc1cc(N2CCCC2)nc2ccc(NC(=S)NCCCN)cc12 [compound 0094]
53 | 4.51 | Cc1cc(N2CCCC2)nc2ccc(NC(=S)NCCCCN)cc12 [compound 0095]
54 | 3.99 | Cc1cc(N2CCCC2)nc2ccc(NC(=S)NCCN3CCNCC3)cc12 [compound 0096]
55 | 4.72 | Cc1cc(N2CCCC2)nc2ccc(NC(=S)NCCN3CCN(C)CC3)cc12 [compound 0097]
56 | 70.99 | CCN(CC)CCNC(=S)Nc1ccc2nc(N3CCCCC3)cc(C)c2c1 [compound 0098]
57 | 67.50 | Cc1cc(N2CCCCC2)nc2ccc(NC(=S)NCCN3CCCCCC3)cc12 [compound 0099]
58 | 0.34 | Cc1cc(N2CCN(CC3CCNCC3)CC2)nc2ccc(NC(=O)NCCCN3CCCCCC3)cc12 [compound 0113, 1-(3-(azepan-1-yl)propyl)-3-(4-methyl-2-(4-(piperidin-4-ylmethyl)piperazin-1-yl)quinolin-6-yl)urea]
59 | 16 | CCN(CC)CCNC(=O)C(=O)Nc1ccc2nc(N3CCN(CC)CC3)cc(C)c2c1 [compound 0114, N^1-(2-(diethylamino)ethyl)-N^2-(2-(4-ethylpiperazin-1-yl)-4-methylquinolin-6-yl)oxalamide]
